Data set [1] has as its system SARS-CoV-2. Briefly: microbe, parasite or virus in culture.
For data set [2], the system named is SARS-CoV-2. Conditions: for Cell viability: ginkgetin 0 μM, 72 h, normalized to remdesivir 5 μM alone.
Data set [3] has as its system SARS-CoV-2 virus [B.1.351]. The data set is classed as in vivo, mice. To be noted: in words.
Data set [4] relates to SARS-CoV-2. The data set is classed as cell-based. To be noted: remdesivir alone, dose-dependent (FIG. 1).
Setting [5] is: Severe acute respiratory syndrome coronavirus 2, Vero C1008, 72 h, read-out: Cell viability.
[6] abbreviates: Severe acute respiratory syndrome coronavirus 2, Vero C1008, read-out: host cell viability.

Where two headings read alike, the source gives them in different places. Some results are limits rather than exact numbers.

As a reminder, the viability is the share of living cells, or the viability signal relative to a control. Take `COc1cc(O)c2c(=O)cc(-c3ccc(OC)c(-c4c(O)cc(O)c5c(=O)cc(-c6ccc(O)cc6)oc45)c3)oc2c1` [Ginkgetin]: in data set [1] (setting [5]), the viability at 1.563 µM turned out to be 18.4%, the viability at 3.125 µM came to 17.1%, the viability at 6.25 µM was determined as 24.5% and the viability at 12.5 µM amounted to 46.5%. In addition, in data set [1] (setting [5]), the viability at 25 µM is 42.6%, the viability at 50 µM was found to be 32.3% and the viability at 100 µM turned out to be 40.4%. The viability at 100 µM in data set [1] (setting [6]) is not above 40%. In data set [2] (1.5625-6.25 μM of ginkgetin alone), the viability is listed as 18-24%. Moreover, the host cell viability result in data set [2] (ginkgetin (25-50 μM) alone, in words) was “modest improvements in host cell viability”.

Take `CCC(CC)COC(=O)[C@H](C)N[P@](=O)(OC[C@H]1O[C@@](C#N)(c2ccc3c(N)ncnn23)[C@H](O)[C@@H]1O)Oc1ccccc1` [Remdesivir]: the viability at 5 µM in data set [1] (setting [5]) was 100%. Besides, in data set [1] (setting [6]), the viability at 1.25 µM came out at 29%. Besides, the viability at 2.5 µM in data set [1] (setting [6]) turned out to be 39%. Further, the “infectious titers in lung” value was “strongest antiviral effect in reducing infectious titer” in data set [3] (remdesivir 25 mg/kg intraperitoneally daily, day 4 post infection) and “dose-dependent effect on reducing infectious titers” in data set [3] (remdesivir 5, 10 or 25 mg/kg intraperitoneally daily from day 1 post infection, day 4 post infection (FIG. 2)). In addition, the “viral titers of SARS-CoV-2” value in data set [4] is reported as “zero”. Further, the Cell viability is reported as 22.2% in data set [2] (remdesivir 0.3125 μM), 23.2% in data set [2] (remdesivir 0.625 μM), 28.1% in data set [2] (remdesivir 1.25 μM) and 37.6% in data set [2] (remdesivir 2.5 μM). In addition, in data set [2] (remdesivir (5 μM) alone, in words), the “host cell viability of SARS-CoV-2-infected Vero E6 cells” value is “dose-dependently improved host cell viability”.

For the origin of these results see patent US20250228814A1, “COMBINATION THERAPIES FOR THE TREATMENT OF VIRAL INFECTIONS” (Flagship Pioneering Innovations VI, LLC, priority 2022, published 2025).
